Experimental data as given in ChEMBL document CHEMBL1157539, “Thousands of chemical starting points for antimalarial lead identification” (Nature, 2010).

Test system: Plasmodium falciparum
Assay: GSK_TCMDC: Inhibition of Plasmodium falciparum 3D7 in whole erythrocytes, using parasite LDH activity as an index of growth.
Assay type: functional, organism-based
Details: Plasmodium falciparum, 3D7

| SMILES | XC50 [nM] |
| --- | --- |
| Cc1cc(CN2CCN(CCOC(c3ccccc3)c3ccccc3)CC2)ccc1O | 935 |
| CC(C)(C)c1ccc(-c2cc3c(ccc4nc(N)nc(N)c43)[nH]2)cc1 | 113 |
| O=C(Nc1ccc2nc3n(c(=O)c2c1)CCCCC3)C(=O)N1CCN(c2ccc(F)cc2)CC1 | 636 |
| COc1cc(F)c2ncc(F)c(CCN3C[C@H](CNCc4ccc5c(n4)NC(=O)CS5)[C@H](O)C3)c2c1 | 462 |
| NCc1ccc(-c2ccccc2CNC2CCN(Cc3ccccc3)CC2)cc1 | 765 |
| COc1ccc2nccc([C@@H](O)CN3CCC(NCc4cc5oc(=O)[nH]c5cc4Cl)CC3)c2c1 | 380 |
| O=c1cc(NCCC(CNCc2ccc(Br)o2)NCc2cc(Br)cc(Br)c2)[nH]c2ccccc12 (centres undefined) | 860 |
| CCCCCCN(C(=O)OCc1ccccc1)C1CCN(C(=O)OC(C)(C)C)CC1C(=O)OCC (centres undefined) | 366 |
| Clc1ccc(Nc2nc(NCc3ccccc3)nc(N/N=C/c3ccccn3)n2)cc1 | 776 |
| NCCNC(=O)c1ccc(-c2cnc3[nH]cc(-c4ccc(C(N)=O)cc4)c3c2)cc1 | 171 |
| CCCCCCc1cnc2nc(N)nc(N)c2c1C | 194 |
| O=C(Nc1ccc(Cl)cc1)c1cc(Cl)ccc1NC(=O)C1CCc2ccccc2O1 (centres undefined) | 1790 |
| COc1ccc(CCNc2nc(N)c3cc(OC)c(OC)cc3n2)cc1 | 1120 |
| CCCCN(CCCC)CCNC(=O)c1cccc(NC(=O)N2CCc3cc(SC)c(C(F)(F)F)cc32)c1 | 809 |
| FC(F)(F)c1ccc2[nH]ccc(=NN=Cc3cccnc3)c2c1 | 625 |
| C=CCOc1ccccc1CNCC(O)c1cccc(C(F)(F)F)c1 (centres undefined) | 845 |
| CCN(CC)CCOc1ccc(Nc2ncc3cc(-c4c(Cl)cccc4Cl)c(=O)n(C)c3n2)cc1 [PD-0166285] | 1180 |
| COc1cccc(Nc2c(C(N)=O)cnc3ccc(-c4ccccc4)cc23)c1 | 771 |
| COc1cccc(-c2cc(C(F)(F)F)n3ncc(C(=O)Nc4cc(C)ccc4O)c3n2)c1 | 159 |
| COc1ccc(C2C(C(=O)OC3CCCCC3)=C(C)NC3=C2C(=O)CCC3)cc1Br (centres undefined) | 579 |

| SMILES | XC50 [nM] |
| --- | --- |
| COc1ccc(Cn2c(Nc3cccc(C(F)(F)F)c3)nc3ccc(C(=O)NCCN4CCCC4)cc32)cc1Cl | 753 |
| O=C(Nc1ccc(Cl)cc1)c1ccc(CN2CCCN(Cc3cccc(Cl)c3)CC2)cc1 | 826 |
| O=C(Nc1ccc(C(=O)Nc2ccc(C3=NCCN3)cc2)cc1)Nc1ccc(C2=NCCN2)cc1 | 180 |
| C=C(C)COc1ccc(-c2n[nH]c(C(F)(F)F)c2-c2ccccc2OC)c(O)c1 | 781 |
| O=C(Cc1c[nH]cn1)Nc1cccc(-c2cccc(-c3nc4ccccc4[nH]3)c2)c1 | 1020 |
| O=C(Nc1ccccc1)Nc1ccc(-c2cccc(-c3nc4cc(C(F)(F)F)ccc4[nH]3)c2)cc1 | 734 |
| CCNc1cc(C(=O)N[C@@H](Cc2ccccc2)[C@H](O)CNCc2cccc(OC)c2C)cc(N2CCCCS2(=O)=O)c1 | 518 |
| Cc1cccc2nc(-c3cccc(-c4ccc(CN5CCN(CCO)CC5)cc4)c3)[nH]c12 | 823 |
| Clc1ccc2c(NCc3ccccn3)ccnc2c1 | 664 |
| CC(C)CN1CCCN(Cc2cccc(NC(=O)c3ccc(-c4ccccc4)cc3)c2)CC1 | 883 |
| COc1ccc2[nH]ccc(=NN=Cc3ccccc3)c2c1 | 110 |
| Brc1ccc(Nc2nc3ccccc3nc2Nc2ccc(Br)cc2)cc1 | 783 |
| CCCCCCCN1C2CCC1CC(CCOc1ccnc3ccc(OC)cc13)C2 (centres undefined) | 389 |
| O=S(=O)(NCCN1CCCC1)c1ccc(-c2ccc(CNCc3ccsc3)cc2)s1 | 832 |
| CN(c1ccc(NC(=O)Nc2cc(C(F)(F)F)ccc2F)cc1)c1ccnc(NCCN2CCCC2)n1 | 1150 |
| O=C(NCC1Cc2cc(Oc3ccccc3)ccc2O1)c1ccc([N+](=O)[O-])o1 (centres undefined) | 917 |
| O=C(CCCCCNC(=O)c1ccc(O)c(-c2ccc(Cl)c(Cl)c2)c1)NCCN1CCOCC1 | 830 |
| O=C(C1CCN(c2nnnn2-c2ccccc2)CC1)N1CCc2ccccc2C1 | 712 |
| Cc1noc(C)c1-c1cccc(CNCc2cccc(-c3ccc(-c4nc5ccccc5[nH]4)cc3)c2)c1 | 228 |
